Several values for one entry are separate records, joined by “and”; a condition that tells them apart may be missing. Identical values can stand only once. Marks after values point to notes of the source that are not given here.
How the values were obtained:
[1] = test system: immune system (neutrophils, lymphocytes, acute phase protein, IL-1); test: Pigs fed HGF diet: changes in immune system (white blood cells, acute phase protein, IL-1); assay type: in vivo, pig; details: HGF diet with 25 mg virginiamycin/kg DM
[2] = Pigs fed HGF diet: feed intake, weight change, weight of washed gut; assay type: in vivo, pig
Procedure: 3. Body weights were measured 2 days before the start of feeding experimental diets, on day 3 and day 7.
5. The amount of feed not consumed was measured each afternoon and intake calculated as a % of amount offered.
(§1) 7. On day 7, half of the pigs in each treatment group were euthanased with pentobarbitone. Post mortem measurements were made of size of the digestive tract, the pH of diqesta in different part of the tract and the digestive tract and other organs were examined for any sign of abnormal tissue appearance. On day 8 the remaining pigs were euthanased and the same post mortem measurements made on these animals.

[3] = test system: acid accumulation in the hind gut; test: Acidic gut syndrome in pigs fed HGF diet: digesta/faecal pH and faecal consistency; assay type: in vivo, pig; details: HGF diet with 25 mg virginiamycin/kg DM, post mortem
TNF-α = test: Sheep overfed high-barley pellets: faecal TNF-α by ELISA; assay type: in vivo; details: VM 30 mg/kg pellets; for Faecal TNF-α concentration, individual sheep: sheep 2, 4, 6, listed as VM
Excerpt: (§2) Six full mouth cannulated cross-bred sheep, weighing approximately 45 kg were used in the trial. These sheep were housed in individual pens on a wood grating floor in an enclosed animal house. All sheep were fed once per day, and water was available at all times ad libitum. All sheep were fed a basal diet consisting of oaten chaff plus 1% urea and 1% mineral pre-mix (Pfizer Animal Health Pty. Ltd.). At time 0 in the experiment, all sheep were fed a pellet containing high levels of barley with or without virginiamycin (VM). The sheep were autopsied 48 hours after grain feeding.
(§3) All sheep were offered 1000 g of a pellet containing 76% barley, 17% lucerne, 3.5% cottonseed meal, 1% urea and 1.5% limestone at the start of the experiment. The sheep were then offered another 1000 g of the pellet 12 hours later. All sheep consumed all of the pelleted feed offered. Half of the sheep received the pellets with no dietary additives, and the other half received the pellets with virginiamycin (VM) added at 30 mg/kg. Eskalin (Pfizer Animal Health Pty. Ltd., 20 g virginiamycin/kg) was included at 1.5 g/kg pellets to provide 30 mg VM/kg in the mixed diet. The animals were monitored closely after receiving grain and autopsied 48 hours after initial grain feeding.
(§4) All sheep were fitted with faecal collection bags, which consisted of a PVC ring attached to the posterior of the sheep to which a plastic bag was attached in order to collect total faecal output. Rumen fluid was taken via the rumen fistula. Rumen and faecal samples were taken at 4 hourly intervals for the first 12 hours after grain feeding. Samples were then taken at 24, 36 and 48 hours after initial feeding.
(§5) A representative 20 g sample of faeces was taken into a small vial, an equal volume of water added and mixed well. The faecal pH was then measured immediately on this sample as for rumen fluid. A further sample was placed in a sterile container and an equal weight of deionised water added to it. This was mixed well using a sterile spatula, and then centrifuged at 15000 rpm for 20 mins. The supernatant was then transferred using a sterile pipette to 3 individual microfuge tubes and frozen for later analysis for TNF-α. TNF-α was measured in the faeces using an ELISA method.

[4] = test system: acid accumulation in the hind gut; test: Acidic gut syndrome in pigs fed HGF diet: digesta/faecal pH and faecal consistency; assay type: in vivo, pig
Excerpt: Pigs were weaned at 4 weeks of age and housed individually in pens with concrete floors with weld mesh dividing walls in temperature controlled facilities. The pens were cleaned twice per day and drinking water was provided by an automatic watering system. All animals were handled daily to acclimatise them to experimental procedures associated with sampling.
Piglets were fed ad libitum on the basal diet for two weeks until commencement of dietary treatments. The diets were formulated to ensure balanced provisions of nutrients for growth and contained 67.5% carbohydrate (rice, cornflour and raftilose) and 32.5% protein mix. The protein mix contained 55% meat meal, 32% fishmeal, 6% casein and 6% vitamins, oil and synthetic amino acids. The proportion of total carbohydrates contributed by rice, corn flour and raftilose on each day of the study is shown in Table 1 together with the total amount offered per pig.
1. Daily collection of faeces from the pens of each pig to assess faecal consistency and for measurement of pH. Faecal consistency was assessed on a scale 1 to 5 with 1 being liquid diarrhoea and 5 being dry, separate, well formed faeces.
as §1

Caecal Strep. Bovis = test: Pigs fed HGF diet: caecal Strep. bovis count; assay type: in vivo, Streptococcus bovis; details: HGF diet with 25 mg virginiamycin/kg DM
Excerpt: (§6) Studies of rapid carbohydrate fermentation and acid build up in the hind gut of sheep and horses have shown that the concentration of volatile fatty acids (VFA) starts to increase and pH starts to drop before there is a proliferation of gram positive bacteria (particularly Streptococcus bovis and Lactobacilli) capable of producing lactic-acid. Lactic acid is a stronger acid than the VFA and is not absorbed from the caecum as quickly as VFA, and this combination of factors leads to low pH which is the first step in development of acidic gut syndrome. Virginiamycin was included in the diet of one of the two dietary treatments containing raftilose and high-maize starch to investigate its effectiveness in controlling lactic acid accumulation and hind gut pH as a potential method for preventing or controlling acidic gut syndrome.
as §1

[5] = test system: fermentative acidosis in the rumen and hind gut; test: Sheep overfed high-barley pellets: rumen and faecal pH, lactate, rumen VFA; assay type: in vivo
Excerpt: as §2, §3, §4
Rumen fluid pH was analysed immediately using a portable pH meter (‘Piccolo 2’ ATC pH meter by Hanna Instruments). A sample was also added to a 20 mL McCartney bottle containing approximately 7 μL of concentrated H2SO4, and frozen for later analysis of lactic and volatile fatty acids.
as §5

Caecal Lactobacilli = test: Pigs fed HGF diet: caecal Lactobacilli count; assay type: in vivo; details: HGF diet with 25 mg virginiamycin/kg DM
Excerpt: as §6, §1

[6] = pigs, post mortem, HGF diet with 25 mg virginiamycin/kg DM
[7] = pigs on HGF diet, 25 mg virginiamycin/kg DM
[8] = weaner pigs, HGF diet with 25 mg virginiamycin/kg dietary DM, post mortem
[9] = proportion mmol/100 mmol, sheep, VM 30 mg/kg
[10] = sheep fed high grain pellets, VM 30 mg/kg
[11] = sheep overfed grain, VM 30 mg/kg pellets
[12] = sheep overfed grain, VM 30 mg/kg, 36 and 48 hour samples
[13] = sheep, VM 30 mg/kg versus no additive

virginiamycin
Acute phase protein CD3 [1]: 5.9
IL-1 (av. days 1, 2, 5 & 8) [1]: 1.6
IL-1 (day 5) ([1]; day 5): 2.0
Lymphocytes (L) ([1]; jugular blood): 11.0
N:L ratio ([1]; neutrophil to lymphocyte ratio): 0.57a
Feed intake versus HGF diet alone ([2]; pigs on HGF diet treated with virginiamycin): higher intake
Weight change (days 3 to 7) ([2]; pigs, HGF diet with 25 mg virginiamycin/kg DM): 1.13
Intake (% offered) (day 4) ([2]; pigs, HGF diet with 25 mg virginiamycin/kg DM, day 4): 81^ab % offered
Av intake (days 1 to 8) ([2]; pigs, HGF diet with 25 mg virginiamycin/kg DM, intake calculated as % of amount offered): 83^ab
Weight of washed gut (g): Caecum [2, 6]: 31.4^a g
Weight of washed gut (g): Rectum [2, 6]: 35.1 g
Weight of washed gut (g): Stomach [2, 6]: 115 g
Stomach pH (days 8/9) [3]: 3.6
Faecal TNF-α concentration, group average (TNF-α; experimental hour 0): 12333
Faecal TNF-α concentration, individual sheep (TNF-α; experimental hour 0): 9000 and 16000 and 12000
Faecal TNF-α concentration, group average (TNF-α; experimental hour 24): 17667
Faecal TNF-α concentration, individual sheep (TNF-α; experimental hour 24): 12000 and 24000 and 17000
Faecal TNF-α concentration, group average (TNF-α; experimental hour 36): 62444
Faecal TNF-α concentration, individual sheep (TNF-α; experimental hour 36): 98333 and 64000 and 25000
Faecal TNF-α concentration, group average (TNF-α; experimental hour 48): 124222
Faecal TNF-α concentration, individual sheep (TNF-α; experimental hour 48): 230667 and 66000 and 76000
pH in different parts of the digestive tract (FIG. 6, words) ([4]; pigs fed HGF diet with or without virginiamycin): consistent effect in reducing acid accumulation (increasing pH) in all parts of the digestive tract
Acid accumulation in the hind gut and in faeces [4, 7]: effective in reducing the extent of acid accumulation
Effect on faecal consistency [4, 7]: significantly improved faecal consistency
Ileal pH ([4]; pigs, HGF diet with 25 mg virginiamycin/kg DM, post mortem): 6.3
Faecal consistency (av d1-5) ([4]; scale 1 to 5, 1 liquid diarrhoea, 5 dry well formed faeces, pigs, HGF diet with 25 mg virginiamycin/kg DM): 3.53^c
Average faecal pH ([4]; weaner pigs, HGF diet with 25 mg virginiamycin/kg DM): 6.0^b
Faecal pH (day 2) ([4]; weaner pigs, HGF diet with 25 mg virginiamycin/kg DM, day 2): 6.3^b
Faecal pH (day 5) ([4]; weaner pigs, HGF diet with 25 mg virginiamycin/kg DM, day 5): 6.0^b
Caecal pH [4, 8]: 5.7^ab
Rectal pH [4, 8]: 6.3^b
Caecal Strep. Bovis (Caecal Strep. Bovis): 3.2 × 10^9
Rumen Ac (%) [5, 9]: 50.941%
Rumen But (%) [5, 9]: 8.75%
Rumen Pr (%) [5, 9]: 34.36%
Ratio of Propionate to Acetate+(2×Butyrate) ([5]; rumen, sheep fed VM versus no additive): significantly higher
Rumen D-Lactic acid [5, 10]: 25.12 mmol/L
Rumen L-Lactic acid [5, 10]: 7.33 mmol/L
Rumen total VFA [5, 10]: 81.80 mmol/L
Average faecal pH [5, 11]: 7.28
Average rumen pH [5, 11]: 5.84
Faecal D-lactate [5, 12]: 7.43
Faecal L-lactate [5, 12]: 28.2
Difference in rumen or faecal pH between treatment groups [5, 13]: no differences
Treatment effect on rumen lactic acid concentration [5, 13]: No treatment effects
pH in different parts of the digestive tract (FIG. 8, words) ([5]; sheep, high-barley pellets with or without virginiamycin, autopsy at 48 hours): consistent effect in reducing acid accumulation (increasing pH) in all parts of the digestive tract
Caecal Lactobacilli (Caecal Lactobacilli): 1.4 × 10^10
